# According to paper PMC4055736, “Functional Characterization of a Novel Family of Acetylcholine-Gated Chloride Channels in Schistosoma mansoni” (PLoS Pathogens, 2014):
# Tests used:
# Type in all cases: cell-based
# SmACC-1 [1] = target: T1, SmACC-1 (Schistosoma mansoni, UniProt V5WAE7); experiment: YFP halide sensor iodide flux assay in transfected HEK-293 cells; block of […] nicotine response by […] antagonist
# T1 construct: gene ACC-1; full-length, human codon-optimized, C-terminal FLAG tag; homomeric channel
# T1 sequence (V5WAE7 24-804): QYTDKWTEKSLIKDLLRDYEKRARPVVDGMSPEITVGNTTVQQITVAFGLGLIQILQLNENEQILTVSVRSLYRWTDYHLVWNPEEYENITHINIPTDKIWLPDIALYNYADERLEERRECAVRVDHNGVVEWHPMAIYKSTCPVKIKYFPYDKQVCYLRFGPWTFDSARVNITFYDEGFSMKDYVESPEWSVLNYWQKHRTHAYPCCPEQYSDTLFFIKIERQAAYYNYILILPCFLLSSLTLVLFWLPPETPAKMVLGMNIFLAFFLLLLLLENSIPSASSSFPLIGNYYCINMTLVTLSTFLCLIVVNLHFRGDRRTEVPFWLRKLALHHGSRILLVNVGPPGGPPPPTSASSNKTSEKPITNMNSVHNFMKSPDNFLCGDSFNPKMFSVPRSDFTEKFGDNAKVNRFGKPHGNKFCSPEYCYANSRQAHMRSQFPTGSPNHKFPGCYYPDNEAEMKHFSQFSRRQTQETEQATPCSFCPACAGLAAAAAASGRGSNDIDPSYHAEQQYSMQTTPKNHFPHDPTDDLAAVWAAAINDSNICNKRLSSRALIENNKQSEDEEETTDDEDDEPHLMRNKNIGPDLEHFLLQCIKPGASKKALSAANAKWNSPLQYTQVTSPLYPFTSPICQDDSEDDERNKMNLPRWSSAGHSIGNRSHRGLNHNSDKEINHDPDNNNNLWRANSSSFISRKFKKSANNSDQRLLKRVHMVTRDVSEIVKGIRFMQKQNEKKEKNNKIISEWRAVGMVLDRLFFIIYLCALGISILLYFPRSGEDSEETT
# SmACC-1 [2] = target: T1, SmACC-1; experiment: YFP halide sensor iodide flux assay in transfected HEK-293 cells, […] agonist
# SmACC-1 [3] = target: T1, SmACC-1; experiment: YFP halide sensor iodide flux assay in transfected HEK-293 cells, dose response (agonist)
SMILES,"YFP halide sensor iodide flux assay in transfected HEK-293 cells, 100 μM agonist (SmACC-1 [2])",other results
COc1cc2c3cc1Oc1cc(ccc1O)C[C@@H]1c4c(cc(OC)c(O)c4Oc4ccc(cc4)C[C@@H]3N(C)CC2)CC[N+]1(C)C [D-tubocurarine],,YFP halide sensor iodide flux assay in transfected HEK-293 cells; block of 100 μ (SmACC-1 [1]): only D-tubocurarine was able to significantly block the activation of SmACC-1 by nicotine
COC(=O)C1=CCCN(C)C1 [arecoline],"statistically significant responses were also seen with other cholinergic agonists (ACh, choline chloride, carbachol and arecoline)",
C[N+](C)(C)CCOC(N)=O [carbachol],"statistically significant responses were also seen with other cholinergic agonists (ACh, choline chloride, carbachol and arecoline)",
C[N+](C)(C)CCO [choline],"statistically significant responses were also seen with other cholinergic agonists (ACh, choline chloride, carbachol and arecoline)",
CN1CCC[C@H]1c1cccnc1 [nicotine],,EC50 (SmACC-1 [3]): 4.3 ± 1.4 µM
